The record followed here is paper PMC4370454, “The 4′-Hydroxyl Group of Resveratrol Is Functionally Important for Direct Activation of PPARα” (PLoS ONE, 2015).

The term IC50 denotes the midpoint of a concentration-inhibition curve. Low values mean greater potency in that assay, high ones weaker potency in that assay.

The assay deals with T1, PDE (bovine brain-derived phosphodiesterase, majority PDE4 isozyme).
T1 construct: bovine brain-derived PDE (Sigma), majority PDE4 isozyme
Kind of assay: PDE-Glo phosphodiesterase assay, […] cAMP substrate. Type of assay: biochemical, Bos taurus.

Molecules are shown by their SMILES.

`Oc1ccc(/N=N/c2ccccc2)cc1` [4-PAP, 4-phenylazophenol] registered an IC50 of 26.5 µM.

As to `Oc1ccc(/C=C/c2cc(O)cc(O)c2)cc1` [resveratrol], 19 µM corresponded to half-maximal inhibition (IC50). The molecule `Oc1ccc(/C=C/c2ccccc2)cc1` [T4HS, trans-4-hydroxystilbene] had an IC50 of 27.8 µM. This IC50 and that of the molecule before are within 1.5-fold of each other.
